This note sets out measurements from patent US20250049787A1, “TREATMENT FOR ACUTE MYELOID LEUKEMIA OR LYMPHOMA” (UNIVERSITY HEALTH NETWORK, priority 2021, published 2025).

Data set [1] addresses FLT3-ITD (internal tandem duplication) (Homo sapiens, UniProt P36888). Nature of the data set: Radiometric HotSpot kinase assay, FLT3-ITD. Particulars: ATP 30 μM; peptide substrate 20 μM. It is filed as biochemical. The method, then: (§1) Kinase IC50 values were determined by Reaction Biology Corp. (Malvern, PA, USA) in the Radiometric HotSpot™ Assay using recombinantly expressed kinase enzymes. Compound (I) was tested in a 10-dose IC50 curve in duplicate. Enzymes were tested at the Km [ATP] for each enzyme using the Reaction Biology binning structure. Kinase reactions were initiated by the addition of protein or peptide substrate and [γ-^33P]-adenosine triphosphate (ATP). Phosphorylated substrates were captured by spotting of the reaction mix on filter membranes, and enzymatic activity was quantified by liquid scintillation counting. Substrates and ATP concentrations are as follows: • FLT3: Peptide substrate, [EAIYAAPFAKKK], 5 μM: ATP 50 μM • FLT3-ITD (internal tandem duplication): Peptide substrate, [EAIYAAPFAKKK], 20 μM: ATP, 30 μM • FLT3 (D835Y): Peptide substrate, [EAIYAAPFAKKK], 5 μM: ATP 20 μM • TAK1: Casein, 1 mg/mL: ATP, 20 μM

For data set [2], the system named is PARP cleavage (apoptotic cell death). Nature of the data set: Immunoblot of PARP cleavage in MV-4-11 cells. It is filed as cell-based, human. Particulars: 4 hours. The method, then: MV-4-11 cells (FLT3 LOH, FLT3-ITD positive cells) were treated with the indicated concentrations of Compound (I) tartrate for 4 hours at 37° C. and 5% CO2. Lysates were analyzed by immunoblot analysis with antibodies against FLT3 (Cell Signaling Technology, Inc., Cat. #3462), PARP (Cell Signaling Technology, Inc., Cat. #9542) and GAPDH (Millipore, Cat. #MAB374). Protein bands were visualized using a LI-COR Odyssey near infrared imager and representative data are shown. Compound (I) tartrate treatment increases the expression of the mature 160 kDa form of FLT3-ITD in MV-4-11 cells in a dose-dependent manner. Apoptotic cell death as measured by PARP cleavage was induced by Compound (I) tartrate treatment.

The test system of a further data set is FLT3-ITD maturation. Nature of the data set: FLT3-ITD maturation in MOLM-14 cells. The format is cell-based, human. Particulars: MOLM-14 cells (co-express FLT3-ITD and wild-type FLT3); data not shown.
The subject of the next data set is MV-4-11 xenografts. Nature of the data set: MV-4-11 xenograft model of human AML in CD-1 Nude mice. The format is in vivo. Particulars: for tumor status after 10 days of treatment: established MV-4-11 xenografts. The method, then:
Female 8- to 10-week-old CD-1 Nude mice (Charles River Laboratories) with established MV-4-11 xenografts were treated for 21 days (n=8). MV-4-11 cells is a human AML cell line which endogenously expresses a Fms Related Receptor Tyrosine Kinase 3 (FLT3) internal tandem duplication (ITD) mutation. Animal weights were monitored daily, and tumor volume was measured three times per week. Tumor volume (mm^3) was defined as follows, length×width^2/2. Percentage tumor growth inhibition (% TGI) was defined as follows, 100×[1−(TVf,treated−TVi,treated)/(TVf,control−TVi,control)], where TVf is the average tumor volume at the end of study, and TVi is the average tumor volume at the initiation of treatment. In cases where tumor regression occurred, percentage tumor regression was defined as follows, 100×[1−(TVf,treated/TVi,treated)]. At the completion of the study, the mice were sacrificed by an anesthetic overdose. The Institutional Animal Care and Use Committee of the University Health Network approved all animal procedures. […] Data are represented as mean±SEM. p values were calculated using Student's/test.

In the next data set the target is T1, FLT3 (D835Y) (Homo sapiens, UniProt P36888, D835Y).
T1 construct: purchased Reaction Biology Corp. (Malvern, PA, USA)
Nature of the data set: Radiometric HotSpot kinase assay, FLT3 (D835Y). It is filed as biochemical. Conditions: ATP 20 μM; peptide substrate 5 μM. The method, then: as §1

Data set [3] relates to SLP-76 Ser376 phosphorylation. In words: Phospho-SLP-76 (Ser376) sandwich ELISA in anti-CD3 stimulated Jurkat E6.1 cells. It is filed as cell-based. Particulars: Homo sapiens, 3 hours pretreatment, anti-CD3 (OKT3) 5 μg/mL 15 minutes. The method, then: Jurkat E6.1 cells were starved overnight in RPMI-1640 medium (Invitrogen) without fetal bovine serum (FBS). Starved cells (2×10^6 per sample in 1 mL) were pretreated with Compound (I) tartrate for 3 hours and then stimulated with 5 μg/mL anti-CD3 antibody (clone OKT3) for 15 minutes. Cells were immediately lysed in cell lysis buffer plus protease and phosphatase inhibitors, and then assayed for SLP-76 Ser376 phosphorylation with the PathScan Phospho-SLP-76 (Ser376) Sandwich ELISA Kit according to the kit instructions (Cell Signaling Technology, Inc.). Duplicate data points for each concentration were collected (Molecular Devices M5). Raw absorbance (A=450 nm) values were background subtracted and then individual values were averaged for each Compound (I) tartrate concentration. The cellular EC50 was determined using a simple one-site dose-response curve fitting model (XLfit4, IDBS).

For the next data set, the target named is T2, TAK1/MAP3K7 (Homo sapiens, UniProt O43318).
T2 construct: purchased Reaction Biology Corp. (Malvern, PA, USA)
T2 sequence (O43318 1-303 limits assumed): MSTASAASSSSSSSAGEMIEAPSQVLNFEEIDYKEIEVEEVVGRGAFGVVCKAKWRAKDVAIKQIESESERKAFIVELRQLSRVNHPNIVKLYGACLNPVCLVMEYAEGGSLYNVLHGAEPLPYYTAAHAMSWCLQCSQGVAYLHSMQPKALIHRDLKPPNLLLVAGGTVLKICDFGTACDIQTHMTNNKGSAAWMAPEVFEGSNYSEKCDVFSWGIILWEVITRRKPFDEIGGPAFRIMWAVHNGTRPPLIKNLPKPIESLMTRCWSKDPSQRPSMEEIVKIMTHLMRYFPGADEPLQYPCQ
In words: Radiometric HotSpot kinase assay, TAK1. Particulars: ATP 20 μM; casein 1 mg/mL. It is filed as biochemical. The method, then:
as §1

Where a name gives a salt, the structure may show the parent alone.

As to `CN1CCN(c2ccc3nc(-c4c(N)c5ccsc5[nH]c4=O)[nH]c3c2)CC1` [Compound (I) tartrate, 4-amino-5-(6-(4-methylpiperazin-1-yl)-1H-benzo[d]imidazol-2-yl)thieno[2,3-b]pyridin-6(7H)-one], the IC50 worked out at 0.13 nM in data set [1], 0.023 nM against FLT3 (D835Y) and 18 nM at TAK1/MAP3K7. Besides, the “apoptotic cell death as measured by PARP cleavage” value in data set [2] is listed as “induced”. In the data set with FLT3-ITD maturation, the FLT3-ITD maturation result was “increase”. Further, the “tumor status after 10 days of treatment” value in the data set on MV-4-11 xenografts (50 mg/kg orally QD) and in the data set with MV-4-11 xenografts (150 mg/kg orally QD) was “tumors were undetectable” in each case. Further, the “effect on large tumors after 7 days of treatment” value with MV-4-11 xenografts (50 mg/kg, large tumors (≅900 mm^3)) was “complete tumor regression”. Also, the “tolerability (body weight and behavior)” value in the data set on MV-4-11 xenografts (CD-1 Nude mice, 21 days treatment) is “well tolerated”. In addition, in data set [3], the EC50 was found to be 24 nM.
